Columns and labels:
[1] = system: HBV viral production in AD38 cells; assay: Viral load production in AD38 cells by quantitative PCR of the HBV core sequence in supernatant; type: cell-based; conditions: 10 μM compound, 6 days at 37° C., viral load in supernatant compared against DMSO control wells; for activity at 10 µM: Hepatitis B virus, 144 h, read-out: AD38 Viral Load (CpAM/DMSO %) at 10 μM
Procedure, shortened: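 AD38 cells seeded at 50,000/well, treated 6 days at 37° C with compound added as 10× solution in 10% DMSO. HBV core sequence in clarified supernatant quantified by TaqMan qPCR against known standards; viral load compared with DMSO control wells.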

[2] = system: AD38 cells; assay: Viability of AD38 cells (Promega CellTiter-Glo) at the end of compound treatment; type: cell-based; conditions: 10 μM compound, 6 days, luminescence normalized against DMSO control wells (controls being 100%)
Procedure, shortened: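 AD38 cells seeded at 50,000/well received compound from a 10× solution in 10% DMSO and were incubated 6 days at 37° C. Viability was then read by CellTiter-Glo luminescence in tetracycline-free medium with 2% FBS and 1% DMSO, normalized to DMSO control wells (100%) and reported as percent viability.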

Structure (SMILES)	activity at 10 µM [1] [%]	AD38 Viability Normalized Result (CPAM/DMSO %) at 10 μM [2] [%]	AD38 Viral Load (CpAM/DMSO %) at 10 μM [1] [%]
O=C(NCc1cccc(OC(F)(F)F)c1)c1ccc2c(c1)NC(=O)c1ccccc1S2(=O)=O [Compound 1624]	1	136	–
O=C(Nc1cncs1)c1ccc2c(c1)NC(=O)c1cc(F)ccc1S2 [Compound 1335]	87	104	–
CCN1c2ccc(C(=O)NCCc3ccc(-c4ccccc4)cc3)cc2NC(=O)c2ccccc21 [Compound 1524]	2	18	–
O=C(Nc1cccc(-c2cnco2)c1)c1ccc2c(c1)NC(=O)c1cc(F)ccc1S2 [Compound 1386]	61	95	–
Cc1cccc(CNC(=O)c2ccc3c(c2)NC(=O)c2ccccc2S3(=O)=O)c1 [Compound 1621]	1	117	–
O=C(NCCc1cncnc1)c1ccc2c(c1)NC(=O)c1ccccc1N2Cc1ccccc1 [Compound 1464]	49	98	–
O=C(NCc1cccnc1)c1ccc2c(c1)NC(=O)c1ccccc1C2 [Compound 1591]	13	111	–
O=C(NCC1CCOC1)c1ccc2c(c1)NC(=O)c1ccccc1S2 (stereo not shown) [Compound 1606]	7	104	–
O=C(Nc1cc(F)c(F)c(F)c1)c1ccc2c(c1)NC(=O)c1cc(F)ccc1S2 [Compound 1324]	10	24	–
CC(=O)N1CCC(CNC(=O)c2ccc3c(c2)NC(=O)c2ccccc2S3)CC1 [Compound 1601, N-((1-acetylpiperidin-4-yl)methyl)-11-oxo-10, 11-dihydrodibenzo [b,f] [1,4] thiazepine-8-carboxamide]	62	106	–
O=C(NCc1ccncn1)c1ccc2c(c1)NC(=O)c1ccccc1S2 [Compound 1585]	66	87	–
CN1c2ccc(C(=O)NCc3cnco3)cc2NC(=O)c2ccccc21 [Compound 1547]	16	90	–
Cc1ccc2c(c1)C(=O)Nc1cc(C(=O)NCCC3CCCCC3)ccc1S2 [Compound 1274]	11	88	–
O=C(NCCc1cncnc1)c1ccc2c(c1)NC(=O)c1ccc(F)cc1S2 [Compound 1362]	19	98	–
CN1c2ccc(C(=O)NCc3cncs3)cc2NC(=O)c2ccccc21 [Compound 1581]	3	97	–
O=C(NCC1CCCCC1)c1ccc2c(c1)NC(=O)c1ccccc1S2 [Compound 1169]	39	107	–
O=C(Nc1ccc(Cl)cc1)c1ccc2c(c1)NC(=O)c1cc(F)ccc1S2 [Compound 1321]	15	74	–
O=C(NCCc1ccc(-c2ccccc2)cc1)c1ccc2c(c1)NC(=O)c1ccccc1S2 [Compound 1111]	2	89	–
O=C(NCCc1cccnc1)c1ccc2c(c1)NC(=O)c1ccccc1S2(=O)=O [Compound 1448]	3	85	–
O=C(NCc1ccccc1N1CCCC1)c1ccc2c(c1)NC(=O)c1ccccc1S2 [Compound 1240]	26	92	–
O=C(Nc1ccc(Cl)cc1F)c1ccc2c(c1)NC(=O)c1cc(F)ccc1S2 [Compound 1334]	33	83	–
O=C(NCC1CCOCC1)c1ccc2c(c1)NC(=O)c1ccccc1S2 [Compound 1607]	14	93	–
O=C(Nc1cccc(-c2ccccc2)c1)c1ccc2c(c1)NC(=O)c1cccc(F)c1S2 [Compound 1410]	35	50	–
O=C(NCCc1ccccc1)c1ccc2c(c1)Sc1ccccc1C(=O)N2 [Compound 1200]	18	125	–
Cl.O=C(NCC1CCCN1)c1ccc2c(c1)NC(=O)c1ccccc1S2 (stereo not shown) [Compound 1633, 11-oxo-N-(pyrrolidin-2-ylmethyl)-10, 11-dihydrodibenzo [b,f] [1,4] thiazepine-8-carboxamide hydrochloride]	66	124	–

Structure (SMILES)	activity at 10 µM [1] [%]	AD38 Viability Normalized Result (CPAM/DMSO %) at 10 μM [2] [%]	AD38 Viral Load (CpAM/DMSO %) at 10 μM [1] [%]
O=C1Nc2cc(S(=O)(=O)N3CC(O)C3)ccc2Sc2ccccc21 [Compound 1434]	85	96	–
O=C(NCCc1ccc(N2CCCCC2)cc1)c1ccc2c(c1)NC(=O)c1ccccc1S2 [Compound 1121]	6	109	–
O=C(NCC1CCCC1)c1ccc2c(c1)NC(=O)c1ccccc1S2 [Compound 1193]	4	90	–
O=C(NCCCCc1ccccc1)c1ccc2c(c1)NC(=O)c1ccccc1S2 [Compound 1109]	6	99	–
CC(C)c1ncc(CNC(=O)c2ccc3c(c2)NC(=O)c2ccccc2S3)s1 [Compound 1611]	0	130	–
O=C(NCc1cccc(F)c1)c1ccc2c(c1)NC(=O)c1ccccc1S2(=O)=O [Compound 1622]	0	120	–
O=C(NCc1cnco1)c1ccc2c(c1)NC(=O)c1ccccc1N2Cc1ccccc1 [Compound 1492]	39	79	–
O=C(NCCc1ccccn1)c1ccc2c(c1)NC(=O)c1ccccc1S2(=O)=O [Compound 1447]	1	85	–
O=C1Nc2cc(COCCc3ccccc3)ccc2Sc2ccccc21 [Compound 1501, 8-(phenethoxymethyl) dibenzo [b,f] [1,4] thiazepin-11(10H)-one]	37	71	–
O=C(NCCC1CCCO1)c1ccc2c(c1)NC(=O)c1ccccc1S2(=O)=O (stereo not shown) [Compound 1636]	0	111	–
CN(C)C(=O)c1ccc2c(c1)Sc1ccc(C(=O)NCCC3CCCCC3)cc1NC2=O [Compound 1278, N-(2-cyclohexylethyl)-N^3,N^3-dimethyl-11-oxo-10, 11-dihydrodibenzo [b,f] [1,4] thiazepine-3,8-dicarboxamide]	–	88	3
O=C(Nc1cccc(-c2cccc(O)c2)c1)c1ccc2c(c1)NC(=O)c1cc(F)ccc1S2 [Compound 1468]	76	97	–
O=C(NCCc1ccc(-n2nccn2)cc1)c1ccc2c(c1)NC(=O)c1ccccc1S2 [Compound 1256]	1	102	–
NC(=O)CSc1nnc(CCNC(=O)c2ccc3c(c2)NC(=O)c2ccccc2S3)o1 [Compound 1582]	8	112	–
Cc1c(C(=O)Nc2ccncc2)ccc2c1NC(=O)c1ccccc1S2 [Compound 1516]	30	82	–
O=C(Nc1ccncc1)c1ccc2c(c1)NC(=O)c1cccc(F)c1S2 [Compound 1393]	41	87	–
O=C1Nc2c(cc(F)c(C(=O)NCc3cncs3)c2F)Sc2ccccc21 [Compound 1545]	59	88	–
CN1C(=O)c2ccccc2Sc2ccc(C(=O)NCCc3cccc(O)c3)cc21 [Compound 1133]	94	99	–
COc1ncc(CNC(=O)c2ccc3c(c2)NC(=O)c2ccccc2S3)s1 [Compound 1612]	0	112	–
CC(C)(C)OC(=O)C(Cc1cncnc1)NC(=O)c1ccc2c(c1)NC(=O)c1cc(F)ccc1S2 (stereo not shown) [Compound 1346, Tert-Butyl 2-(2-fluoro-11-oxo-10, 11-dihydrodibenzo [b,f] [1,4]thiazepine-8-carboxamido)-3-(pyrimidin-5-yl) propanoate]	–	97	105
O=C1Nc2cc(S(=O)(=O)Nc3cncnc3)ccc2Sc2ccccc21 [Compound 1505]	81	85	–
O=C(NCCC1CCC(F)CC1)c1ccc2c(c1)NC(=O)c1ccccc1S2 (stereo not shown) [Compound 1217]	1	37	–
O=C(NCC(c1ccccc1)N1CCCC1)c1ccc2c(c1)NC(=O)c1ccccc1S2 (stereo not shown) [Compound 1251]	8	99	–
O=C(Nc1nccs1)c1ccc2c(c1)NC(=O)c1ccccc1S2(=O)=O [Compound 1634]	45	125	–
O=C(NCc1cccnc1)c1ccc2c(c1)NC(=O)c1ccccc1S2(=O)=O [Compound 1449]	2	86	–

— patent US10183936B2, “Hepatitis B core protein allosteric modulators” (priority 2014, dated 2019)
